The text below walks through data of US9408926B2, “KDR and VEGF/KDR binding peptides and their use in diagnosis and therapy” (Bracco Suisse S.A., priority 2002, dated 2016).

Assay [1] deals with VEGF-induced migration of HUVECs. Description: VEGF-induced HUVEC migration assay. The assay is classed as cell-based, human. As to conditions: for IC50: VEGF 10 ng/mL, 22 hours, read-out: IC50 for blocking VEGF-induced migration. On the procedure: After 22 hours, quantitation of cell migration/invasion was achieved by post-labeling cells in the insert plates with a fluorescent dye and measuring the fluorescence of the invading/migrating cells in a fluorescent plate reader. The VEGF-induced migration was calculated by subtracting the migration that occurred when only basal medium was placed in the lower chamber of the wells.
Serum-starved HUVECs were placed, 100,000 cells per well, into the upper chambers of BD fibronectin-coated FluoroBlok 24-well insert plates. […] After 22 hours, quantitation of cell migration/invasion was achieved by post-labeling cells in the insert plates with a fluorescent dye and measuring the fluorescence of the invading/migrating cells in a fluorescent plate reader. The VEGF-induced migration was calculated for each experimental condition by subtracting the amount of migration that occurred when only basal medium was added to the lower chamber of the wells.
Serum-starved HUVECs were placed, 100,000 cells per well, into the upper chambers of BD fibronectin-coated FluoroBlok 24-well insert plates. […] After 22 hours, quantitation of cell migration/invasion was achieved by post-labeling cells in the insert plates with a fluorescent dye and measuring the fluorescence of the invading/migrating cells in a fluorescent plate reader. VEGF-induced migration was calculated for each experimental condition by subtracting the amount of migration observed in the absence of VEGF.
Serum-starved HUVECs were placed, 100,000 cells per well, into the upper chambers of BD fibronectin-coated FluoroBlok 24-well insert plates. […] After 22 hours, quantitation of cell migration/invasion was achieved by post-labeling cells in the insert plates with a fluorescent dye and measuring the fluorescence of the invading/migrating cells in a fluorescent plate reader. VEGF-stimulated migration was derived by subtracting the basal migration measured in the absence of VEGF.
Serum-starved HUVECs were placed, 100,000 cells per well, into the upper chambers of BD fibronectin-coated FluoroBlok 24-well insert plates. […] After 22 hours, quantitation of cell migration/invasion was achieved by post-labeling cells in the insert plates with a fluorescent dye and measuring the fluorescence of the invading/migrating cells in a fluorescent plate reader.

The subject of assay [2] is SW-480 human colon carcinoma cells. In words: In vivo inhibition of tumor growth, SW-480 xenograft in nude mice. As to conditions: for Tumor Weights: 6 mg/kg IV. Here is the method: Female athymic nude mice (Crl:NU/NU-nuBR) at 6-8 weeks of age were used in this study. […] Test Articles and vehicle were administered intraperitoneally (IP), Cisplatin was administered intravenously (IV). Tumor measurements were recorded twice weekly using hand-held calipers. Mice were monitored daily for signs of toxicity and morbidity. At study termination, animals were euthanized by carbon dioxide overdose and necropsied for tissue collection.
A total of nine (9) groups were used in this study. Each group contained ten (10) tumor-bearing mice. Groups 1 and 2 contained untreated and vehicle treated negative control mice, respectively. […] Group 9 contained mice that received cisplatin, a standard chemotherapeutic compound as a positive control.
Dosing began the same day that animals were randomly sorted into groups (Study Day 7). Each dose was removed from the dose vial using aseptic technique for each animal and the injection site was wiped with an alcohol swab prior to dose administration. Doses were administered with a 1.0 mL syringe and a 27-gauge×½″ needle for each mouse
The Test Article- and vehicle-treated mice received daily intraperitoneal (IP) injections for 15 days. Cisplatin was administered every other workday for a total of five (5) doses via an intravenous route.
Clinical Observations of each animal were performed and recorded at least once daily for toxicity, morbidity and mortality. Morbidity included signs of illness such as, but not limited to, emaciation, dehydration, lethargy, hunched posture, unkempt appearance, dyspnea and urine or fecal staining.
In accordance with the protocol tumor measurements were taken twice weekly throughout the study by measuring the length and width of tumors with calibrated calipers. […] Tumor weights were calculated using the following formula: mg=(L×W^2)/2. Animals were euthanized either when mean tumor weight was ≧1000 mg per group over two (2) consecutive measurements, or if tumors became ulcerated, impaired the animal's ability to ambulate or obtain food and water.

The target of a further assay is KDR. Description: KD, B (μM).
Assay [3] addresses T1, KDR expressed in transiently-transfected 293H cells (Homo sapiens, UniProt P35968).
T1 construct: Both PCR products were digested with Not1 and ligated together to create the full-length receptor; V5-His (of vector pcDNA6/V5-His C); expressed in transfected cells; host or cells: 293H cells (Invitrogen cat. #11631), transient, lipofectamine 2000
Description: Binding of biotinylated peptide/neutravidin-HRP complexes to KDR-transfected 293H cells. The format is cell-based. As to conditions: for Binding of tetrameric peptide/avidin-HRP complexes to KDR-transfected cells: 3.33 nM complex; for Reduction of binding of peptide/avidin HRP complex in presence of serum: 40% rat serum, single concentration 2.22-6.66 nM.

Assay [4] concerns the target T2, KDR-expressing 293H cells (Homo sapiens, UniProt P35968).
T2 construct: Both PCR products were digested with Not1 and ligated together to create the full-length receptor; V5-His (of vector pcDNA6/V5-His C); expressed in transfected cells; host or cells: 293H cells (Invitrogen cat. #11631), transient, lipofectamine 2000
Description: Bead-binding assay with peptide-conjugated fluorescent beads. The format is cell-based. The settings on record: KDR- versus mock-transfected 293H cells, 40% FBS. Here is the method: The following procedures were performed to assess the ability of KDR-binding peptides to bind to KDR-expressing cells. In this procedure, KDR-binding peptides containing SEQ ID NOS:264, 337, 363, and 373 were conjugated to fluorescent beads, and their ability to bind to KDR-expressing 293H cells was assessed. The experiments show these peptides can be used to bind particles such as beads to KDR-expressing sites.
As a positive control, biotinylated anti-KDR antibody was incubated with the Neutravidin-coated beads as above, except that 0.03 mg of the biotinylated antibody preparation in PBS (Gibco #14190-136) was used instead of peptide solution. Beads can be stored at 4° C. until needed for up to 1 week.
From the above bead preparations, 0.12 mL was spun for 10 minutes at 2000 rpm in a microcentrifuge at room temperature. The supernatant was removed and 0.06 mL of MES pH 6.0 was added. Each bead solution was then vortexed and sonicated in a water bath 15 min. […] The plates were then read on a Packard FluoroCount fluorometer at excitation 550 nm/emission 620 nm. […]
To calculate the number of beads bound per well, a standard curve with increasing numbers of the same fluorescent beads was included in each assay plate. The standard curve was used to calculate the number of beads bound per well based on the fluorescence intensity of each well.

The test system of assay [5] is KDR-expressing NMU-induced mammary tumor. Description: Contrast ultrasound with D5-containing microbubbles to monitor sunitinib treatment of NMU-induced tumors. The format is in vivo, rat. The settings on record: for Area *10 (tumor size, fundamental B-mode): sunitinib 40 mg/kg/day from day 106, values multiplied by 10. On the procedure:
Four (4) female OFA rats (Charles River, Lyon, France) were investigated. At the specific age of 42 days, animals received intraperitoneal injection of N-methyl-N-nitrosourea 50 mg/kg (NMU, Sigma-Aldrich, ref D3254) prepared in 0.9% NaCl, in order to develop a KDR-expressing tumor in the animals (see latency period infra). […] Animals received food and water (tap water) ad libitum.
Stock solution was made weekly and stored at 4° C.
At the level of the tumor site, skin was gently shaved and an ultrasound coupling gel (Aquasonic 100, Parker, USA) was applied between the clinical ultrasound probe and the skin.
The linear probe L12-5 was used.
Vials of a contrast agent containing D5 were reconstituted in 2 ml glucose 5%. […] Emulsification was effected at 12′000 rpm (five minutes). The lyophilizate was reconsistituted as described above. The contrast agent was quickly injected through the catheter placed in the caudal vein at the dose of 2 μl gas per kg. […] Injections were performed at a constant rate of 4 ml/min.
Tumor size was assessed in fundamental-B mode […].
Contrast enhancement was quantified from Dicom files using an in-house quantification and providing, among other parameters, mean echo-signal values in areas of interest as a function of time. The amplitude of the echo signal was expressed as linearized echo amplitude values. Individual frames were analyzed, time-intensity curves were generated and Maximum intensity (Imax) was determined as an index of tumor vascularization and late phase opacification (LPO) was determined at 10 min after injection in the median plane of the tumor.

“And” between values parts separate entries of the source, which are not always exact repeats. Identical values can stand only once.

T1 sequence (P35968 20-1356): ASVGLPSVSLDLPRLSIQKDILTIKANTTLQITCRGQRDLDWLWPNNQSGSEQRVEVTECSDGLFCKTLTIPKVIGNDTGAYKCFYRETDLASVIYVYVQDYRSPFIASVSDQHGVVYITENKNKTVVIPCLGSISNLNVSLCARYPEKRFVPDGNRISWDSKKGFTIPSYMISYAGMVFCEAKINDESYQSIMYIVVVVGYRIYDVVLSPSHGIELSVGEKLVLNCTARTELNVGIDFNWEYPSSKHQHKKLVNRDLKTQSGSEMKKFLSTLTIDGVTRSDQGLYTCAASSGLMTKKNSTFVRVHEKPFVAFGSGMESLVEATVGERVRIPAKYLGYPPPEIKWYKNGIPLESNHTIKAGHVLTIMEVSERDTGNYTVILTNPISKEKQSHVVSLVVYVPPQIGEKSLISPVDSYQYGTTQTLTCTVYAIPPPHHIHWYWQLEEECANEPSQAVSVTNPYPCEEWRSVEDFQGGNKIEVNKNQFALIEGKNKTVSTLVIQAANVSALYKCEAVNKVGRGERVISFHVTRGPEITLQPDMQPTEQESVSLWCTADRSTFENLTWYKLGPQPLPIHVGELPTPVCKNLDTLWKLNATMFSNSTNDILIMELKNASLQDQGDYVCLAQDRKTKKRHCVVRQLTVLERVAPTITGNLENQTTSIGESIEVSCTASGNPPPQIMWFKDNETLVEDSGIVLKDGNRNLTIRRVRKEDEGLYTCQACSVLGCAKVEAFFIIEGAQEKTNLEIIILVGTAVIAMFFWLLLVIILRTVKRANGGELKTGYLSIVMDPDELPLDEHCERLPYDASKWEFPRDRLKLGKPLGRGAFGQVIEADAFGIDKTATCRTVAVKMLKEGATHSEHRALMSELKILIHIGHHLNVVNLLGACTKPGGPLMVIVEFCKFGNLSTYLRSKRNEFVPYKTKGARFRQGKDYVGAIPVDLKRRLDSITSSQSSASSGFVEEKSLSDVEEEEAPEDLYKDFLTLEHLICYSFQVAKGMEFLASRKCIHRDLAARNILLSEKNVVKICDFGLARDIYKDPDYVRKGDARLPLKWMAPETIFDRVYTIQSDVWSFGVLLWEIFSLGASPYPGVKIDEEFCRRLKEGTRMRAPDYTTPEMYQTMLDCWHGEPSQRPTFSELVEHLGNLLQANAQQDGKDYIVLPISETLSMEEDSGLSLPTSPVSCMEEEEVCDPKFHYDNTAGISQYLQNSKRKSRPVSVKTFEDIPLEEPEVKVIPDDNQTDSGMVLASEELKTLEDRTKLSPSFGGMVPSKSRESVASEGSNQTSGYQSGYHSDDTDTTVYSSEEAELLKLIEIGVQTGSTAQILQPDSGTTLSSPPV
T2 sequence (P35968 20-1356): as above

For the compound “Ac-AQDWYYDEILJGRGGRGGRGGK (SEQ ID NO:478) {K[Ac-VCWEDSWGGEVCFRYDPGGGK (SEQ ID NO:337) (JJ-Glut)-NH2]}—NH2 [D17]”, the IC50 in assay [1] was approximately 250 nM.

`N.N.[Cl][Pt][Cl]` [Cisplatin, reference compound]: the “Mean tumor weight on Study Day 22” value in assay [2] (Group 9, intravenous, five doses) is 995 mg.

One may read the Kd as the free concentration of one partner at which half of the binding sites on the other are occupied at equilibrium, for simple one-to-one binding. Read a low Kd as a tighter complex. GDSRVCWEDSWGGEVCFGGGK [compound 369] had a Kd at KDR of 1300 nM.

At KDR, GDSRVCWEDSWGGEVCFRYGGGK [compound 372] came in with a Kd of 60 nM.

Consider SRVCWEDSWGGEVCFRYGGGGK [compound 371], for which, at KDR, the Kd was 35 nM.

In the case of “5 CF-Gly-N{[CH2CH2C(═O)-Gly-N(CH2CH2C(═O)-Adoa-Thr-Lys-Pro-Pro-Arg-OH]2}2 [Adjunct A]”, in assay [1] (100 nM alone), the “Block of VEGF-induced migration” value was “not by 100 nM Adjunct A alone”.

`CC(C)c1cc(/C=C(\C#N)C(=O)NCCCc2ccccc2)cc(C(C)C)c1O` [SU-1498, reference compound] showed a VEGF-induced migration blocked in assay [1] (3 micromolar) of 47%.

Turning to “GDSRVCWEDSWGGEVCFRYDPGGGK [SEQ ID NO:294]”, in assay [3], the “Binding of tetrameric peptide/avidin-HRP complexes to KDR-transfected cells” value was “bound to KDR-transfected cells significantly better than to mock-transfected cells” and the “Reduction of binding of peptide/avidin HRP complex in presence of serum” value was “not significantly affected”. In assay [4], the “Binding of peptide-conjugated fluorescent beads, JJ spacer” value is on record as “significantly improved the specific binding to KDR”.

Turning to VCWEDSWGGEVCFGGGK [compound 368], the Kd on KDR amounted to 910 nM.

For the compound “Ac-AGPTWCEDDWYYCWLFGTGGGK (SEQ ID NO:277){Ac-GDSRVCWEDSWGGEVCFRYDPGGGK (SEQ ID NO:294)[JJ-Glut-NH(CH2)4-(S)—CH(NH2)C(═O)—]—NH2}—NH2 [D25]”, the IC50 in assay [1] came out at 5 nM.

As to AGPKWCEEDWYYCMITGTGGGK [SEQ ID NO:264], in assay [3], the “Binding of tetrameric peptide/avidin-HRP complexes to KDR-transfected cells” value is given as “bound to KDR-transfected cells significantly better than to mock-transfected cells” and the “Reduction of binding of peptide/avidin HRP complex in presence of serum” value is “not significantly affected”. The “Binding of peptide-conjugated fluorescent beads, JJ spacer” value in assay [4] is on record as “enhanced binding to KDR cells”.

“Ac-AQDWYYDEILSMADQLRHAFLSGGGGGK [SEQ ID NO:356]”: the “Reduction of binding of peptide/avidin HRP complex in presence of serum” value in assay [3] is given as “not significantly affected”.

For the compound `CCN(CC)CCNC(=O)c1c(C)[nH]c(/C=C2\C(=O)Nc3ccc(F)cc32)c1C` [sunitinib, Sunitinib], the “Change of tumor size as a percentage of the tumor prior sunitinib treatment” value in assay [5] (48 hours after treatment, 40 mg/kg/day oral, individual rats, 40 mg/kg/day) was −4.6% and −0.7% and 30%. Besides, in assay [5] (48 hours after treatment, individual rats no. 1, 2, 3), the “Change of Imax” value is −11% and +23% and +11%. Further, the “Area *10 (tumor size, fundamental B-mode)” value in assay [5] (rat no. 1, day 108) was 20.80; in assay [5] (rat no. 1, day 115) it was 11.00; in assay [5] (rat no. 1, day 116), 10.10; in assay [5] (rat no. 2, day 108), 26.70; in assay [5] (rat no. 2, day 109), 20.20; in assay [5] (rat no. 3, day 108) it was 7.5. The “Area *10 (tumor size, fundamental B-mode)” value in assay [5] (rat no. 3, day 114) is reported as 2.9; in assay [5] (rat no. 3, day 116), 3.0.

As for AGPTWCEDDWYYCWLFGTGGGK [SEQ ID NO:277], in assay [3], the “Reduction of binding of peptide/avidin HRP complex in presence of serum” value is on record as “more than 50%”.

As for `N.N.[Cl][Pt][Cl]` [Cisplatnin], the “Tumor Weights” value in assay [2] (day 4 after cell injection) is on record as 34 mg; in assay [2] (day 7 after cell injection), 160 mg; in assay [2] (day 8 after cell injection), 173 mg; in assay [2] (day 11 after cell injection), 407 mg; in assay [2] (day 14 after cell injection), 675 mg; in assay [2] (day 20 after cell injection), 635 mg. The “Tumor Weights” value in assay [2] (day 21 after cell injection) amounted to 839 mg; in assay [2] (day 22 after cell injection), 995 mg.
